Experimental data from the OligoGym collection.
HELM strings list units from the 5' end as sugar, base in round brackets, then linkage (d deoxyribose, r ribose, m 2'-O-methyl, p phosphodiester). Strings are as the collection lists them; they lack the last nucleoside at the 3' end of the tested compound. [moe] = 2'-O-(2-methoxyethyl) (MOE); [sp] = phosphorothioate linkage; [m5C] = 5-methylcytosine

Each substance was assayed against GFAP (assay: mouse, dose not given). Details: ASO.
“RNA1{[moe](A)[sp].[moe](A)p.[moe](A)p.[moe](G)p.[moe](G)p.[moe]([m5C])p.d(A)[sp].d([m5C])[sp].d(A)[sp].d(G)[sp].d(T)[sp].d(T)[sp].d([m5C])[sp].d([m5C])[sp].d([m5C])[sp].d(A)[sp].[moe](G)p.[moe](A)[sp].[moe](T)}$$$$ (last 3' nucleoside missing)” showed a 3 h FOB score of 2 score 0-7.
In the case of “RNA1{[moe](A)[sp].[moe](A)p.[moe](A)p.[moe](G)p.[moe](G)p.d([m5C])[sp].d(A)[sp].d([m5C])[sp].d(A)[sp].d(G)[sp].d(T)[sp].d(T)[sp].d([m5C])[sp].d([m5C])[sp].d([m5C])[sp].[moe](A)p.[moe](G)p.[moe](A)[sp].[moe](T)}$$$$ (last 3' nucleoside missing)”, the 3 h FOB score is reported as 2 score 0-7.
For “RNA1{[moe](A)[sp].[moe](A)p.[moe](G)p.[moe](G)p.[moe]([m5C])p.[moe](A)p.d([m5C])[sp].d(A)[sp].d(G)[sp].d(T)[sp].d(T)[sp].d([m5C])[sp].d([m5C])[sp].d([m5C])[sp].d(A)[sp].d(G)[sp].[moe](A)p.[moe](T)[sp].[moe](A)}$$$$ (last 3' nucleoside missing)”, the 3 h FOB score was 2 score 0-7.
“RNA1{[moe](A)[sp].[moe](A)p.[moe](G)p.[moe]([m5C])p.[moe](T)[sp].d([m5C])[sp].d(T)[sp].d(G)[sp].d(A)[sp].d(G)[sp].d([m5C])[sp].d(T)[sp].d(G)[sp].d(T)[sp].d(G)[sp].[moe](G)p.[moe](T)p.[moe](G)[sp].[moe](T)}$$$$ (last 3' nucleoside missing)” showed a 3 h FOB score of 4 score 0-7.
Substance “RNA1{[moe](A)[sp].[moe](A)p.[moe](T)p.[moe]([m5C])p.[moe](A)[sp].d(A)[sp].d(G)[sp].d([m5C])[sp].d(T)[sp].d([m5C])[sp].d([m5C])[sp].d([m5C])[sp].d(A)[sp].d([m5C])[sp].d([m5C])[sp].[moe](T)p.[moe](G)p.[moe]([m5C])[sp].[moe]([m5C])}$$$$ (last 3' nucleoside missing)” has a 3 h FOB score of 0 score 0-7.
Substance “RNA1{[moe](A)[sp].[moe](A)p.[moe](T)p.[moe]([m5C])p.[moe](A)[sp].d(T)[sp].d(T)[sp].d(T)[sp].d([m5C])[sp].d(A)[sp].d(G)[sp].d(G)[sp].d(G)[sp].d([m5C])[sp].d([m5C])[sp].[moe](A)p.[moe](A)p.[moe](T)[sp].[moe](G)}$$$$ (last 3' nucleoside missing)” has a 3 h FOB score of 5 score 0-7.
Substance “RNA1{[moe](A)[sp].[moe](G)p.[moe](A)p.[moe](G)p.[moe](A)[sp].d(T)[sp].d(G)[sp].d(G)[sp].d(G)[sp].d(T)[sp].d(G)[sp].d(A)[sp].d(G)[sp].d(G)[sp].d(T)[sp].[moe](G)p.[moe](A)p.[moe](G)[sp].[moe](G)}$$$$ (last 3' nucleoside missing)” has a 3 h FOB score of 7 score 0-7.
For “RNA1{[moe](A)[sp].[moe](G)p.[moe](A)p.[moe](G)p.[moe](T)[sp].d(G)[sp].d(T)[sp].d(G)[sp].d(T)[sp].d(A)[sp].d(T)[sp].d(T)[sp].d(A)[sp].d(G)[sp].d(G)[sp].[moe](A)p.[moe](T)p.[moe]([m5C])[sp].[moe]([m5C])}$$$$ (last 3' nucleoside missing)”, the 3 h FOB score was 5 score 0-7.
For “RNA1{[moe](A)[sp].[moe](G)p.[moe](A)p.[moe](G)p.d(T)[sp].d(G)[sp].d(T)[sp].d(G)[sp].d(T)[sp].d(A)[sp].d(T)[sp].d(T)[sp].d(A)[sp].d(G)[sp].[moe](G)p.[moe](A)p.[moe](T)p.[moe]([m5C])[sp].[moe]([m5C])}$$$$ (last 3' nucleoside missing)”, the 3 h FOB score was 5 score 0-7.
With “RNA1{[moe](A)[sp].[moe](G)p.[moe](A)p.[moe](T)p.[moe](A)[sp].d(T)[sp].d([m5C])[sp].d(T)[sp].d(T)[sp].d(G)[sp].d(T)[sp].d(G)[sp].d(A)[sp].d([m5C])[sp].d([m5C])[sp].[moe](T)p.[moe](T)p.[moe](G)[sp].[moe](T)}$$$$ (last 3' nucleoside missing)” the 3 h FOB score was 6 score 0-7.
